This assay deals with T1, recombinant human GSK3β (Homo sapiens, UniProt P49841).
T1 construct: purchased Dundee University, UK
T1 sequence (P49841 whole entry): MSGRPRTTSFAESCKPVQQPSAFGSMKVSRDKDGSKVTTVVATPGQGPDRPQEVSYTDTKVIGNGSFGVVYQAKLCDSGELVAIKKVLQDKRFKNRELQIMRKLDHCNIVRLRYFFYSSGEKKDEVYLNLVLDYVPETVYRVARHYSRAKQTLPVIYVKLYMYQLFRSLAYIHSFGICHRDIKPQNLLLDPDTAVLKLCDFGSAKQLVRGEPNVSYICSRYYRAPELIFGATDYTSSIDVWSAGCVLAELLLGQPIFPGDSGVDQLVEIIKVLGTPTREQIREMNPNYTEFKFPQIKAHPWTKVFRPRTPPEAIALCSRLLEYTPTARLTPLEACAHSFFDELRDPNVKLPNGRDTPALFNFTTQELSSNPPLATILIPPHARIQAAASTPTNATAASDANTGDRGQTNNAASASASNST
Put plainly: GSK3β Scintillation Proximity Assay (ATP competition). Type of assay: biochemical. The note with it: inhibition constants calculated with Km of ATP for GSK3β of 20 μM; 1 μM ATP, 1 μM biotinylated peptide substrate. On the procedure: Determination of ATP Competition in Scintillation Proximity GSK3β Assay.
GSK3β Scintillation Proximity Assay.
The competition experiments were carried out in duplicate with 10 different concentrations of the inhibitors in clear-bottom microtiter plates (Wallac, Finland). A biotinylated peptide substrate, Biotin-Ala-Ala-Glu-Glu-Leu-Asp-Ser-Arg-Ala-Gly-Ser(PO3H2)-Pro-Gln-Leu (AstraZeneca, Lund), was added at a final concentration of 1 μM in an assay buffer containing 1 mU recombinant human GSK3β (Dundee University, UK), 12 mM morpholinepropanesulfonic acid (MOPS), pH 7.0, 0.3 mM EDTA, 0.01% β-mercaptoethanol, 0.004% Brij 35 (a […] detergent), 0.5% glycerol and 0.5 μg BSA/25 μl. The reaction was initiated by the addition of 0.04 μCi [γ-^33P]ATP (Amersham, UK) and unlabelled ATP at a final concentration of 1 μM and assay volume of 25 μl. After incubation for 20 minutes at room temperature, each reaction was terminated by the addition of 25 μl stop solution containing 5 mM EDTA, 50 μM ATP, 0.1% Triton X-100 and 0.25 mg streptavidin coated Scintillation Proximity Assay (SPA) beads (Amersham, UK). After 6 hours the radioactivity was determined in a liquid scintillation counter (1450 MicroBeta Trilux, Wallac). The inhibition curves were analysed by non-linear regression using GraphPad Prism, USA. The Km value of ATP for GSK3β, used to calculate the inhibition constants (Ki) of the various compounds, was 20 μM.
For the compound `Cc1ncc(-c2nc(Nc3ccc(C(=O)N4CCC(F)CC4)nc3)ncc2F)n1C1CCOCC1` [Example 32, [5-[[5-Fluoro-4-[2-methyl-3-(oxan-4-yl)imidazol-4-yl]pyrimidin-2-yl]amino]pyridin-2-yl]-(4-fluoro-1-piperidyl)methanone], the inhibition constant (Ki) (usually the equilibrium dissociation constant of an inhibitor or competing ligand from its target) was 33 nM.

`CCN(Cc1ccccc1)C(=O)c1ccc(Nc2ncc(F)c(-c3cnc(C)n3C3CCOCC3)n2)cn1` [Example 33, N-Benzyl-N-ethyl-5-[[5-fluoro-4-[2-methyl-3-(oxan-4-yl)imidazol-4-yl]pyrimidin-2-yl]amino]pyridine-2-carboxamide]: the Ki was 16 nM.

On to `CCC(C)N1CCN(C(=O)c2ccc(Nc3ncc(F)c(-c4cnc(C)n4C4CCOCC4)n3)cn2)CC1` (stereo not drawn) [Example 34, (4-Butan-2-ylpiperazin-1-yl)-[5-[[5-fluoro-4-[2-methyl-3-(oxan-4-yl)imidazol-4-yl]pyrimidin-2-yl]amino]pyridin-2-yl]methanone], for which the Ki was 85 nM.

With `CCCN(CC1CC1)C(=O)c1ccc(Nc2ncc(F)c(-c3cnc(C)n3C3CCOCC3)n2)cn1` [Example 35], the inhibition constant Ki is 20 nM.

`Cc1ncc(-c2nc(Nc3ccc(C(=O)N4CCN(c5ccc(F)cc5)CC4)nc3)ncc2F)n1C1CCOCC1` [Example 36, [5-[[5-Fluoro-4-[2-methyl-3-(oxan-4-yl)imidazol-4-yl]pyrimidin-2-yl]amino]pyridin-2-yl]-[4-(4-fluorophenyl)piperazin-1-yl]methanone]: the inhibition constant Ki was 10 nM.

For the compound `CCCN1CCN(C(=O)c2ccc(Nc3ncc(F)c(-c4cnc(C)n4C4CCOCC4)n3)cn2)CC1` [Example 37, [5-[[5-Fluoro-4-[2-methyl-3-(oxan-4-yl)imidazol-4-yl]pyrimidin-2-yl]amino]pyridin-2-yl]-(4-propylpiperazin-1-yl)methanone], the Ki is 56 nM.

As to `CCN(CC)C(=O)c1ccc(Nc2ncc(F)c(-c3cnc(C)n3C3CCOCC3)n2)cn1` [Example 38, N,N-Diethyl-5-[[5-fluoro-4-[2-methyl-3-(oxan-4-yl)imidazol-4-yl]pyrimidin-2-yl]amino]pyridine-2-carboxamide], the Ki is 29 nM.

Turning to `Cc1ncc(-c2nc(Nc3ccc(C(=O)NCC(C)(C)CN(C)C)nc3)ncc2F)n1C1CCOCC1` [Example 39, N-(3-Dimethylamino-2,2-dimethyl-propyl)-5-[[5-fluoro-4-[2-methyl-3-(oxan-4-yl)imidazol-4-yl]pyrimidin-2-yl]amino]pyridine-2-carboxamide], the Ki is 160 nM.

With `Cc1ncc(-c2nc(Nc3ccc(C(=O)N4CC(C)CC(C)C4)nc3)ncc2F)n1C1CCOCC1` (stereo not drawn) [Example 40, (3,5-Dimethyl-1-piperidyl)-[5-[[5-fluoro-4-[2-methyl-3-(oxan-4-yl)imidazol-4-yl]pyrimidin-2-yl]amino]pyridin-2-yl]methanone], the Ki is 16 nM.

Regarding `Cc1ncc(-c2nc(Nc3cnc(C(=O)N4CCC4)c(Cl)c3)ncc2F)n1C1CCOCC1` [Example 42, Azetidin-1-yl-[3-chloro-5-[[5-fluoro-4-[2-methyl-3-(oxan-4-yl)imidazol-4-yl]pyrimidin-2-yl]amino]pyridin-2-yl]methanone], the Ki is 11 nM.

As for `CN1CCN(C(=O)c2ncc(Nc3ncc(F)c(-c4cnc(C(F)(F)F)n4C4CCOCC4)n3)cc2Cl)CC1` [Example 43, [3-Chloro-5-[[5-fluoro-4-[3-(oxan-4-yl)-2-(trifluoromethyl)imidazol-4-yl]pyrimidin-2-yl]amino]pyridin-2-yl]-(4-methylpiperazin-1-yl)methanone], the Ki is 23 nM.

As to `CN1CCN(C(=O)c2ncc(Nc3ncc(F)c(-c4cnc(C(F)(F)F)n4C)n3)cc2Cl)CC1` [Example 44, [3-Chloro-5-[[5-fluoro-4-[3-methyl-2-(trifluoromethyl)imidazol-4-yl]pyrimidin-2-yl]amino]pyridin-2-yl]-(4-methylpiperazin-1-yl)methanone], the Ki is 55 nM.
